Like-named read-outs stand apart in the source and are kept apart here. Marks after values point to notes of the source that are not given here.
Tests used:
RhlR [1] = target: T1, RhlR (Pseudomonas aeruginosa, UniProt P54292); conditions: P. aeruginosa RhlR reporter systems; reference number not given; cited from earlier work
T1 construct: expressed in transfected cells; host or cells: E. coli JLD271 (K-12 ΔlacX74 sdiA271::Cam) carrying pJN105-R2 (RhlR expression) and pSC11-rhlI (rhlI'-lacZ reporter)

RhlR [2] = target: T1, RhlR; test: P. aeruginosa RhlR reporter agonism assay; type: cell-based
Protocol: (§1) RhlR activity in E. coli strain JLD271 (ΔsdiA) was measured via a β-galactosidase reporter (rhI-lacZ) using the Promega Beta-Glo Assay System as previously described. RhlR activity in P. aeruginosa PA14 (ΔrhlIΔlasI) was measured via a GFP reporter (rhlA-gfp). […] See Supporting Information for both reporter protocols.
(§2) Supporting Information — Aguirre-Figueroa et al.
P. aeruginosa RhlR reporter assay. RhlR activity in P. aeruginosa PA14 ΔrhlIΔlasI was measured via a GFP reporter. Briefly, a single colony of P. aeruginosa strain PA14 ΔrhlIΔlasI harboring the transcriptional fusion reporter pPROBE-GT rhlA-GFP (Table S1) was grown in LB medium with 40 μg/mL gentamicin overnight (~20 h). The culture was diluted 1:100 in fresh LB medium, without antibiotic, to an OD600 = 0.25 (0.22–0.30) (~1 h). Aliquots (2 μL) of compound DMSO stock solution or serial dilution were added to the inner wells (i.e., non-periphery rows) of a black, clear bottom 96-well plate. To 12 inner wells, DMSO alone (vehicle) was added to serve as controls (negative and positive). For the six negative control wells (no BHL), 198 μL of bacterial culture plus OdDHL (to achieve 10 μM) were added. […] After incubation, the OD600 and GFP production (excitation at 500 nm, emission at 540 nm) were read for each well using a plate reader. […]

RhlR [3] = target: T1, RhlR; test: E. coli (JLD271) RhlR reporter agonism assay (no BHL added); type: cell-based; conditions: for Emax: read-out: Max Activation (RhlR), E. coli JLD271 RhlR reporter, no BHL added, high concentrations
Protocol: (§3) To start, the sulfonyl HLs were evaluated for their ability to antagonize RhlR using a previously described E. coli strain (JLD271) harboring a RhlR expression plasmid and a rhlI reporter plasmid. This E. coli reporter produces RhlR, and protein activity in the presence of an added small molecule can be measured via the production of β-galactosidase as quantified via luminescence (see Methods). Compounds were screened in competition against RhlR’s native ligand, BHL (at its EC50 value in this strain, 10 μM), over a range of concentrations to generate antagonism dose–response curves (see Supporting Information) and calculate IC50 values (listed in Table ). A small set of compounds was also screened for RhlR agonism in the E. coli reporter; the agonism assay format was identical to the antagonism assay, except no BHL was added.
as §1, §2
(§4) E. coli and P. aeruginosa RhlR reporter assay protocols.
E. coli RhlR reporter assay. RhlR activity in E. coli strain JLD271 (ΔsdiA) was measured via a β-galactosidase reporter using the Promega Beta-Glo® Assay System as previously described.10 A schematic of the reporter plasmids and assay protocol is shown in Scheme S1. Briefly, a single colony of E. coli JLD271 harboring the RhlR expression plasmid pJN105-R and the rhlI-lacZ transcriptional fusion reporter pSC11-R (Table S1) was grown in LB medium with 100 μg/mL ampicillin and 10 μg/mL gentamicin overnight (~16 h). The culture was diluted 1:10 in fresh LB medium and grown to an OD600 = 0.25 (0.23–0.28) (~0.5 h). Arabinose was added to a final concentration of 4 mg/mL to induce the expression of pJN105-R. Aliquots (2 μL) of compound DMSO stock solution or serial dilution were added to the inner wells (i.e., non-periphery rows) of a 96-well microtiter plate. To six inner wells, DMSO alone (vehicle) was added as a negative control. For agonism assays, BHL was added to six inner wells as a positive control (to achieve 1 mM). For antagonism assays, BHL was added to six inner wells as a positive control and to all of the other sample wells except for the vehicle control wells (to achieve 10 μM ). […]
After the incubation period, the OD600 of each well was measured using a plate reader. […] After incubation, luminescence of each well was measured using a plate reader. To determine levels of RhlR activity, raw luminescence was divided by OD600 to correct for growth variation and then normalized to the negative (0%) and positive (100%) control wells. […]

RhlR [4] = target: T1, RhlR; test: E. coli (JLD271) RhlR reporter antagonism assay, in competition with BHL; type: cell-based; conditions: for activity profile in RhlR: E. coli RhlR reporter dose-response curves; for max. RhlR inhibition (%): E. coli RhlR reporter, BHL at 10 μM set to 0%, media control set to 100%; for IC50: IC50, E. coli JLD271 RhlR reporter, against 10 μM BHL
Protocol: as §3, §1, §2, §4
E. coli RhlR reporter assay. RhlR activity in E. coli strain JLD271 (ΔsdiA) was measured via a β-galactosidase reporter using the Promega Beta-Glo® Assay System as previously described.10 A schematic of the reporter plasmids and assay protocol is shown in Scheme S1. Briefly, a single colony of E. coli JLD271 harboring the RhlR expression plasmid pJN105-R and the rhlI-lacZ transcriptional fusion reporter pSC11-R (Table S1) was grown in LB medium with 100 μg/mL ampicillin and 10 μg/mL gentamicin overnight (~16 h). The culture was diluted 1:10 in fresh LB medium and grown to an OD600 = 0.25 (0.23–0.28) (~0.5 h). Arabinose was added to a final concentration of 4 mg/mL to induce the expression of pJN105-R. Aliquots (2 μL) of compound DMSO stock solution or serial dilution were added to the inner wells (i.e., non-periphery rows) of a 96-well microtiter plate. To six inner wells, DMSO alone (vehicle) was added as a negative control. For agonism assays, BHL was added to six inner wells as a positive control (to achieve 1 mM). For antagonism assays, BHL was added to six inner wells as a positive control and to all of the other sample wells except for the vehicle control wells (to achieve 10 μM ). Subculture (198 μL) was then dispensed into each inner well. To the outer (periphery) wells, 200 μL of water were added to maintain humidity during incubation. Plates were then incubated for 4 h (shaking) at 37 °C.
Scheme S1. Schematic of E. coli reporter plasmids and assay. (A) Representation of plasmids used in the heterologous reporter system. (B) General reporter assay workflow. BioRender used in […]
After the incubation period, the OD600 of each well was measured using a plate reader. Cell dilution plates were prepared by transferring 10 μL from the incubated culture plate wells to a fresh 96-well plate and adding 90 μL of 18 MΩ water to each well. Next, 10 μL aliquots of diluted Beta-Glo® reagent (1:2 with 18 MΩ water) were added to each well of a white 384-well microtiter plate, followed by 10 μL of culture from each well of the dilution plate. The 384-well plate was incubated (without shaking; i.e., static) for 30 min at 30 °C. After incubation, luminescence of each well was measured using a plate reader. To determine levels of RhlR activity, raw luminescence was divided by OD600 to correct for growth variation and then normalized to the negative (0%) and positive (100%) control wells.
Dose-response reporter assay data for compounds in the E. coli RhlR reporter.
Dose-response curves for RhlR antagonism by compounds against 10 μM BHL using the E. coli JLD271 RhlR reporter are provided below. Compound names are indicated on the x-axis of each plot.
All assays performed in triplicate as at least three separate biological replicates. […]

bacterial growth = test: Effect on bacterial growth (OD600 over time); type: cell-based; conditions: at >2 mM concentrations
Protocol: All new compounds were fully characterized for purity and identity (see Supporting Information). […] The remaining compounds had no effect on growth over the concentration range tested. All compounds were tested in bacteriological assays in triplicate and in at least three separate trials using unique cultures. IC50 and EC50 values in reporter assays were calculated using GraphPad Prism software (version 9.0) with a variable slope sigmoidal curve fit.

other LuxR homologues = test system: other LuxR homologues; set-up: method as in Kim et al.; conditions: ref Kim et al.; cited from earlier work

T1 sequence (P54292 whole entry): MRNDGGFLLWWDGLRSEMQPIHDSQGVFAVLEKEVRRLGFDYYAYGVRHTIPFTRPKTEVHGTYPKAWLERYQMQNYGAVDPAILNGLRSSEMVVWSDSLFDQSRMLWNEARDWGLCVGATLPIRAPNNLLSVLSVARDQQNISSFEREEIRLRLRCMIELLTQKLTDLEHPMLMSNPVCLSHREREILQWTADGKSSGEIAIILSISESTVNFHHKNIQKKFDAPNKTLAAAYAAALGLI

| SMILES | max. RhlR inhibition (%) (RhlR [4]) | IC50 (RhlR [4]) [µM] | effect on bacterial growth (bacterial growth) | further results |
| --- | --- | --- | --- | --- |
| CCCC(=O)N[C@H]1CCOC1=O [BHL, N-butanoyl L-homoserine lactone, reference compound] |  |  |  | EC50 (RhlR [1]): 5 to 10 µM; EC50 (RhlR [2]): 4.47 µM; EC50 (RhlR [3]): 10 µM; IC50 (RhlR [3]): 8.73 µM |
| O=C1OCC[C@@H]1NS(=O)(=O)Cc1ccc(C(F)(F)F)cc1 [Compound 15, 4-CF3 BnSHL] | 35 ^f % |  |  | activity profile in RhlR (RhlR [4]): partial agonist; Emax (RhlR [3]): 38% |
| O=C1OCC[C@@H]1NS(=O)(=O)c1ccccc1Cl [Compound 27, 2-chloro BSHL] | 93% | 545 | modest effect on bacterial growth |  |
| O=C1OCC[C@@H]1NS(=O)(=O)Cc1cccc(Cl)c1 [Compound 33, 3-Cl BnSHL] | 99% | 125 | modest effect on bacterial growth | potency gain (RhlR [4]; 33 vs 16, 43 vs 24, 86 vs 45, E. coli RhlR reporter IC50): ≤ 40 fold |
| O=C1OCC[C@@H]1NS(=O)(=O)c1ccc(Br)cc1 [Compound 35, 4-bromo BSHL] | 99% | 166 | modest effect on bacterial growth |  |
| O=C1OCC[C@@H]1NS(=O)(=O)c1cc(Cl)cc(Cl)c1 [Compound 50, 3,5-Cl-BSHL] |  |  |  | activity profile in RhlR (RhlR [4]): partial agonist behavior; Emax (RhlR [3]): 30% |
| O=C1OCC[C@@H]1NS(=O)(=O)c1ccccc1 [Compound 57] | 93% | 715 |  | antagonism of other LuxR homologues (other LuxR homologues): ~50% |
| O=C1OCC[C@@H]1NS(=O)(=O)c1ccc(F)c(Cl)c1 [Compound 64, 3-Cl, 4-F BSHL] | 90% | 31.3 | modest effect on bacterial growth | fold higher potency relative to 3,4-di-Cl BSHL (43) (RhlR [4]; E. coli RhlR reporter IC50): 2 fold |

Source: PMC12456999, “Sulfonyl Homoserine Lactones Are Tunable Probes to Inhibit the Quorum Sensing Receptor RhlR and Reduce Swarming Motility in Pseudomonas aeruginosa” (ACS Infectious Diseases, 2025)
